How the values were obtained:
Her-2 sheddase = assay: Her-2 ECD ELISA of BT474 culture supernatants (Her-2 sheddase inhibition); type: cell-based, human
Experimental: BT474 cells were seeded in 100 μL of RPMI medium containing 10% FCS+10 μg/ml insulin in 96 well plates at 2×10^4 cells/well. The cells were incubated overnight at 37° C. The following morning, the media was removed and 100 μL of fresh media with or without compound was added back. The cells were incubated for about 72 hours at 37° C. After about 72 hours, the supernatants were removed. The samples were diluted 1:10 and analyzed using a commercially available Her-2 ELISA kit per manufacturer's instructions (Oncogene Research, catalog #QIA 10).
These inhibitors were added, at varying concentrations, to cultures of BT474 cells, a Her-2 overexpressing breast cancer cell line known to enzymatically process cell surface Her-2 (p185) and release the extracellular domain (ECD) into the culture supernatant, i.e., shedding of ECD. After 72 hours, cell culture supernatants were harvested and assayed for Her-2 ECD content using an ELISA assay.

MMP12 = MMP12 (Homo sapiens, UniProt P39900); assay: MMP12 fluorogenic peptide biochemical assay
MMP12, sequence (P39900 106-470): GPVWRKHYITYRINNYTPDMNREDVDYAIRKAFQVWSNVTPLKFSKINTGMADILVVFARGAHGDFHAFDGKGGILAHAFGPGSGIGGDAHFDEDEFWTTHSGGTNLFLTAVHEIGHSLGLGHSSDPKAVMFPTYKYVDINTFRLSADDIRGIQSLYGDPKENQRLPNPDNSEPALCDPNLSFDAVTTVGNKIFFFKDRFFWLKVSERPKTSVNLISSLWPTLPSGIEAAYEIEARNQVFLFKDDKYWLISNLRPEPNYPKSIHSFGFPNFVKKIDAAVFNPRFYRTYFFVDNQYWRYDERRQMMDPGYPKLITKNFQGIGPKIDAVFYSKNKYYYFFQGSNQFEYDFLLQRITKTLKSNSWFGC
From the text: Source of enzymes for biochemical assays: Except for ADAM17 and MT1-MMP, all recombinant human MMPs and ADAMs were obtained from R&D Systems (Minneapolis, Minn.). […] MT1-MMP was obtained from US Biological (Swampscott, Mass.) with a catalog number of M2429. Porcine ADAM17 was purified in house from porcine spleen.
Substrates for biochemical assays: Fluorogenic Peptide substrate, (7-methoxycoumarin-4-yl)acetyl-Pro-Leu-Gly-Leu-(3-[2,4-dinitrophenyl]-L-2,3-diaminopropionyl)-Ala-Arg-NH2 (SEQ ID NO: 46), was obtained from R&D Systems (Minneapolis, Minn.) with a catalog number of ES001. It was used as substrate for MMP1, MMP2, MMP7, MMP8, MMP9, MMP12, MMP13, and MT1-MMP. Fluorogenic Peptide substrate, (7-methoxycoumarin-4-yl)acetyl-Arg-Pro-Lys-Pro-Val-Glu-Nva-Trp-Arg-Lys(2,4-dinitrophenyl)-NH2 (SEQ ID NO: 47), was obtained from R&D Systems with a catalog number of ES002. It was used as substrate for MMP3 and MMP10. […]
In general, 5 mM compound stock was prepared in DMSO. […] The plate was read on a plate reader with excitation of 320 nm and emission of 405 nm. Percentage of inhibition was calculated for each concentration and IC50 value was generated from curve fitting. […]

BT474 cells = assay: Cell proliferation assay (cell counting, BrdU incorporation); type: cell-based, human; conditions: Her-2 overexpressing BT474 cells
Experimental: (§1) Proliferation assays were routinely performed with two protocols: cell counting and BrdU incorporation assay. For cell counting, cells (1×10^5) were seeded in each well of 12 well plates and cultured overnight. Then, cells were treated for 6 days with drugs and compounds as indicated in individual experiments. Culture media were replaced with fresh media containing the same concentrations of drugs and compounds after the first 3 days of treatment. Viable cells were counted with hemacytometers immediately after trypan blue staining.
The BrdU incorporation assay was performed using a colorimetric Cell Proliferation ELISA kit per manufacturer's instruction (#1647229, Roche Molecular Biochemicals), measuring DNA synthesis in proliferating cells. Briefly, cells (5−10×10^3) were seeded in each well of 96 well plates and cultured overnight. […] Finally, 100 μl/well of substrate solution was added and the results were obtained using a microplate reader (Spectra Max PLUS, Molecular Devices) during color development. Multiple readings at various time points were obtained and results in the linear range of the assay were obtained. […]
After varying periods of cell culture (2-6 days), the cell cultures were harvested and cell growth was assessed by cell count and BRdU incorporation using standard protocols.

MCF7 cells = assay: as above; type: cell-based, human; conditions: MCF7 cells which do not overexpress Her-2
Experimental: as §1
The BrdU incorporation assay was performed using a colorimetric Cell Proliferation ELISA kit per manufacturer's instruction (#1647229, Roche Molecular Biochemicals), measuring DNA synthesis in proliferating cells. Briefly, cells (5−10×10^3) were seeded in each well of 96 well plates and cultured overnight. The next day, culture media were replaced with fresh media containing drugs and compounds as indicated for individual experiments. […] Finally, 100 μl/well of substrate solution was added and the results were obtained using a microplate reader (Spectra Max PLUS, Molecular Devices) during color development. Multiple readings at various time points were obtained and results in the linear range of the assay were obtained. […]

IC50 (MMP12): 1.95 nM
Compound: CN1CC2(CC2)C[C@H](C(=O)NO)[C@H]1C(=O)N1CCN(c2ccc(C(F)(F)F)cn2)CC1 [Compound 6]
Her-2 sheddase activity (Her-2 sheddase): inactive
effect on antiproliferative activity of a suboptimal dose of Herceptin (BT474 cells): does not enhance
effect on antiproliferative activity of a suboptimal dose of Herceptin (MCF7 cells): does not enhance
